Read-outs that look alike come from different tables or passages of the source.
Columns and labels:
[1] = molecular target: T1, H^+,K^+ adenosine triphosphatase (Sus scrofa, UniProt P19156); assay: H+,K+ adenosine triphosphatase inhibition (proton pump inhibition); format: biochemical, hog
T1 construct: hog stomach was homogenized and subjected to ultracentrifugation to obtain a microsome fraction; from tissue; host or cells: hog stomach, microsome fraction (discontinuous Ficoll gradient)
Method: Proton pump inhibition was evaluated by the H^+,K^+ adenosine triphosphatase (to be referred to as "H^+,K^+ ATPase" hereinafter)inhibition.
That is, hog stomach was homogenized and subjected to ultracentrifugation to obtain a microsome fraction, and the microsomes were subjected to discontinuous density gradient ultracentrifugation using 0 and 9% Ficoll solutions to obtain a fraction containing H^+,K^+ ATPase. The H^+,K^+ ATPase activity was determined by measuring the released inorganic phosphorus using ATP as the substrate and an inorganic phosphorus measuring reagent PiSET(IATRON) manufactured by IATRON.

[2] = system: gastric acid secretion; assay: Gastric acid secretion inhibition activity (pylorus-ligated, histamine-stimulated rats); format: in vivo, Sprague-Dawley (SD) male rats; conditions: Rattus norvegicus; 30 mg/kg oral; pylorus ligated 3 hours later; histamine hydrochloride 30 mg/kg s.c.; total acidity over 3 hours; read-out: Acid secretion inhibition rate (%)
Method: (Test Example 2) Gastric acid secretion inhibition activity
Basically according to the method of Satoh et (Journal of Pharmacology and Experimental Therapeutics, vol.248, pp.806-815, 1988), each of the compounds shown in Examples was orally administered at a dose of 30 mg/kg to Sprague-Dawley (SD) male rats which have been subjected to fasting of 24 hours (free drinking).
After 3 hours of the compound administration, the pylorus of each rat was ligated under urethane anesthesia, and 30 mg of histamine hydrochloride per Kg was administered to the rat by subcutaneous injection. After 3 hours of the ligation, the gastric juice was collected to measure its volume and calculate total acidity (mEqH^+ /3 hours) by sodium hydroxide titration. The inhibition rate (%) was calculated by the following formula in which A represents the total gastric juice acidity of control group rat and B represents the total gastric juice acidity of test compound-administered group rat. [formula]

[3] = system: Stress ulcer; assay: Stress ulcer; format: in vivo, Wistar male rats; conditions: Rattus norvegicus; oral, 7 hours stress loading in water bath at 23° C.; read-out: Antiulcer activity, Stress ulcer, ED50 value
Method: (Test Example 3) Stress ulcer
Basically according to the method of Takagi et al. (Japanese Journal of Pharmacology (to be referred to as "Japan. J. Pharmacol." hereinafter), vol.18, pp.9-18, each of the compounds shown in Examples was orally administered to Wistar male rats which have been subjected to fasting of 24 hours (free drinking). Each rat was transferred into a stress cage 30 minutes thereafter and subjected to stress loading by suspending the cage in a water bath controlled at 23° C. to such a depth that the rat was soaked up to its breast.
After 7 hours of the stress loading, the rat was recovered from the water bath to excise the stomach. The length (mm) of each ulcer developed in the stomach was measured under a stereoscopic microscope, and the total length of ulcers per one animal was used as an ulcer index. The dose of each test compound required to inhibit 50% of the ulcer index of the control group was calculated (ED50). The results are shown in Table 3, together with the results of the following pylorus ligation ulcer test.

[4] = system: Pylorus ligation ulcer; assay: Pylorus ligation ulcer; format: in vivo, Wistar male rats; conditions: Rattus norvegicus; oral, 14 hours after pylorus ligation; read-out: Antiulcer activity, Pylorus ligation ulcer, ED50 value
Method: (Test Example 4) Pylorus ligation ulcer
Basically according to the method of Shay et al. (Gastroenterology, vol.5, pp.43-61, 1945), each of the compounds shown in Examples was orally administered to Wistar male rats which have been subjected to fasting of 48 hours (free drinking). After 30 minutes of the compound administration,the pylorus of each rat was ligated.
After 14 hours of standing, the stomach was excised. The length and width of each ulcer developed in the fore-stomach part were measured under a stereoscopic microscope to calculate the ulcer area (length×width). In accordance with the method of Takagi et al. (Japan. J. Pharmacol., vol.24, pp.357-361, 1974), ulcer index was calculated based on the total ulcer area per animal. The dose of each test compound required to inhibit 50% of the ulcer index of the control group was calculated (ED50).

[5] = system: ulcer induced by 0.15N hydrochloric acid and 60% ethanol; assay: Cell protection effect (hydrochloric acid/ethanol-induced ulcer); format: in vivo, Wistar male rats; conditions: Rattus norvegicus, 1 h; oral, 30 minutes before 0.15N HCl / 60% ethanol 5 ml/kg
Method: (Test Example 5) Cell protection effect
Basically according to the method of Mizui and Doteuchi (Japan. J. Pharmacol., vol.33, pp.939-945, 1983), each of the compounds shown in Examples was orally administered to Wistar male rats which have been subjected to fasting of 24 hours (free drinking). After 30 minutes of the compound administration, a mixture solution of 0.15N hydrochloric acid and 60% ethanol was orally administered at a dose of 5 ml/kg. After 1 hour of standing, the stomach was excised. The length (mm) of each ulcer developed in the stomach was measured under a stereoscopic microscope to calculate the total length of ulcers per animal as an ulcer index. The dose of each test compound required to inhibit 50% of the ulcer index of the control group was calculated (ED50).

[6] = Acute toxicity test; conditions: mouse, in vivo; oral, mice, one week observation
From the text: (Test Example 6) Acute toxicity test
Each of the compounds shown in Examples was orally administered to three ICR male mice per group.

[7] = H+,K+ ATPase fraction from hog stomach microsomes, ATP substrate, released inorganic phosphorus, read-out: Enzyme inhibition IC50 value (converted)

T1 sequence (P19156 2-1034 limits assumed): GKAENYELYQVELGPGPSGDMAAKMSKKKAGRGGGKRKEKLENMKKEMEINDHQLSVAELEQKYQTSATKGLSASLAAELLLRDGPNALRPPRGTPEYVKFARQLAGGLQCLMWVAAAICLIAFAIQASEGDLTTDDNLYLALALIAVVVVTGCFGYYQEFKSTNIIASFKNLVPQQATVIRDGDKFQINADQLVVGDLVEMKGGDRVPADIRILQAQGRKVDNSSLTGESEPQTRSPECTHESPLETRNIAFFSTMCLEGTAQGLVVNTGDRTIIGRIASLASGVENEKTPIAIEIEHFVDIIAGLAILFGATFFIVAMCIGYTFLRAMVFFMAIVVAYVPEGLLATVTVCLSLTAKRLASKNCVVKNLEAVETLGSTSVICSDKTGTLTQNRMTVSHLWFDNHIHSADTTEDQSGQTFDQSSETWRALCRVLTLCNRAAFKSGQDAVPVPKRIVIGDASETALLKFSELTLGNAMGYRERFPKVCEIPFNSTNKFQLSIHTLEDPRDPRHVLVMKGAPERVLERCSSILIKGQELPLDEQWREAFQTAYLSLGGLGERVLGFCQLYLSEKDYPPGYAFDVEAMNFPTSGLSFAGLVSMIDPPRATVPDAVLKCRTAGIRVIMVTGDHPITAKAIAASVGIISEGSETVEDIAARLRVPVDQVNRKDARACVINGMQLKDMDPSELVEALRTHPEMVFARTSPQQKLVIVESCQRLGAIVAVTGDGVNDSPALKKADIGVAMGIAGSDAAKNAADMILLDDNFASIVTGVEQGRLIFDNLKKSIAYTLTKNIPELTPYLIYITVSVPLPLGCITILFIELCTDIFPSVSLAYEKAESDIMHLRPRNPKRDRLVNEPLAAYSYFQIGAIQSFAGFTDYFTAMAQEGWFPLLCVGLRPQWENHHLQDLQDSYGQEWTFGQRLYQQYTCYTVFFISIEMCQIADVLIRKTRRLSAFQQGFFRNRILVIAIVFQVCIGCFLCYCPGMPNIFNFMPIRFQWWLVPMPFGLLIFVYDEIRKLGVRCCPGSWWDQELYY
T1 sequence (P18434 whole entry partner): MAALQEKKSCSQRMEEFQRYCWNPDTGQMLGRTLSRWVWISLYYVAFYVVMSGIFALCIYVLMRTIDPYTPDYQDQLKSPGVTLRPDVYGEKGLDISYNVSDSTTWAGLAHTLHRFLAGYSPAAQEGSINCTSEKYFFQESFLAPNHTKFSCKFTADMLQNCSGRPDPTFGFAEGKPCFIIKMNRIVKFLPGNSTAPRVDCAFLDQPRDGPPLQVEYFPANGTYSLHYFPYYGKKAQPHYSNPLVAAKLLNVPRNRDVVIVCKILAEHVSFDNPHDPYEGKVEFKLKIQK

| SMILES | IC50 [1, 7] [µM] | inhibition in vivo at 30 mg/kg [2] [%] | ED50 [3] [mg/kg] | ED50 [4] [mg/kg] | ED50 [5] [mg/kg] | LD50 at 168 h [6] [mg/kg] | IC50 [1] [µM] |
| --- | --- | --- | --- | --- | --- | --- | --- |
| CCOCCOC(C#Cc1nc2ccccc2nc1C#CC(CC)OCCOCC)CC (stereo not shown) [Example 117] | 123 | 35 | 6.1 | 28 | 8 | > 1000 | – |
| COCC#Cc1nc2ccccc2nc1C#CCOC [Example 107] | – | – | 29 | 30 | – | – | – |
| CCCC#Cc1nc(C#N)c(C#N)nc1C#CCOC [Example 81] | – | 61 | 42 | 5.2 | – | > 1000 | 1.51 |
| CC[C@H](C#Cc1nc2ccccc2nc1C#C[C@@H](CC)OCCOC)OCCOC [Example 19, 2,3-bis((R)-3-(2-methoxyethoxy)-1-pentynyl)quinoxaline] | – | 28 | – | – | – | – | – |
| CCOCCOC(C)(C)C#Cc1nc2ccccc2nc1C#CC(C)(C)OCCOCC [Example 44, 2,3-bis(3-(2-ethoxyethoxy)-3-methyl-1-butynyl)quinoxaline] | 88.9 | – | 59 | – | 13 | > 1000 | – |
| COC(C)(C)C#Cc1nc2ccccc2nc1C#CC(C)(C)OC [Example 114] | 93 | 30 | – | – | 22 | > 1000 | – |
| CCOC(C#Cc1nc2ccccc2nc1C#CC(CC)OCC)CC (stereo not shown) [Example 115] | – | – | – | – | – | > 1000 | – |
| COC(=O)c1nc(C#CC(OC)OC)c(C#CC(OC)OC)nc1C(=O)OC [Example 59] | 8.92 | 79 | 18 | 21 | – | > 1000 | – |
| COCC#Cc1nc(C#N)c(C#N)nc1C#CCOC [Example 7, 5,6-bis(3-methoxy-1-propynyl)-2,3-dicyanopyrazine] | 1.88 | – | 5.6 | 1.2 | 1.2 | > 1000 | – |
| CCC#Cc1nc(C(=O)OC)c(C(=O)OC)nc1C#CC(C)OC (stereo not shown) [Example 62] | 5.15 | 69 | – | – | – | – | – |
| CCC(C#Cc1nc2ccc(C=O)cc2nc1C#CC(CC)OCCOC)OCCOC (stereo not shown) [Example 138] | 10.7 | – | – | – | 9.8 | – | – |
| CCCOCC#Cc1nc(C(=O)O)c(C(=O)O)nc1C#CCOCCC [Example 5, 5,6-bis(3-n-propoxy-1-propynyl)pyrazine-2,3-dicarboxylic acid] | – | 61 | – | – | – | – | – |
| COCCC#Cc1nc2ccccc2nc1C#CCCOC [Example 12, 2,3-bis(4-methoxy-1-butynyl)quinoxaline] | 279 | 41 | 24 | – | – | > 1000 | – |
| CCC(C#Cc1nc2ccccc2nc1C#CC(CC)OCCOC(C)C)OCCOC(C)C (stereo not shown) [Example 119] | 11.1 | – | – | – | 22 | – | – |
| CCOC(C)C#Cc1nc2ccccc2nc1C#CC(C)OCC (stereo not shown) [Example 10, 2,3-bis(3-ethoxy-1-butynyl)quinoxaline] | 96.2 | 38 | 15 | 11 | 1.9 | – | – |
| CCOC(=O)c1nc(C#CCOC)c(C#CCOC)nc1C(=O)OCC [Example 69] | – | 70 | – | – | – | – | – |
| CCC(C#Cc1nc2ccccc2nc1C#CC(CC)OCCOC)OCCOC (stereo not shown) [Example 116] | 188 | 32 | 39 | – | 2.7 | > 1000 | – |
| COCCOCC#Cc1nc2ccc(OC)cc2nc1C#CCOCCOC [Example 133] | 20.8 | 44 | – | – | – | – | – |
| COCCCC#Cc1nc(C(=O)OC)c(C(=O)OC)nc1C#CCCCOC [Example 2, 5,6-bis(5-methoxy-1-pentynyl)pyrazine-2,3-dicarboxylic acid dimethyl ester] | – | 66 | 60 | 66 | – | > 1000 | – |
| COCCOC(C)(C)C#Cc1nc2ccccc2nc1C#CC(C)(C)OCCOC [Example 43, 2,3-bis(3-(2-methoxyethoxy)-3-methyl-1-butynyl)quinoxaline] | – | – | – | – | 13 | > 1000 | – |
| CCOCC#Cc1nc2ccccc2nc1C#CCOCC [Example 108] | – | – | – | – | – | > 1000 | – |
| CCCC#Cc1nc(C#N)c(C#N)nc1C#CCCOC [Example 77] | 1.44 | 55 | – | – | – | – | – |
| CCCOCC#Cc1nc(C(=O)OC)c(C(=O)OC)nc1C#CCOCCC [Example 1, 5,6-bis(3-n-propoxy-1-propynyl)pyrazine-2,3-dicarboxylic acid dimethyl ester] | 87.5 | 50 | – | 28 | – | > 1000 | – |
| CCC(C#Cc1nc2ccccc2nc1C#CC(CC)OC)OC (stereo not shown) [Example 11, 2,3-bis(3-methoxy-1-pentynyl)quinoxaline] | 30.4 | 27 | – | 35 | 41 | > 1000 | – |
| COCCOC(C)C#Cc1nc(C(=O)OC)c(C(=O)OC)nc1C#CC(C)OCCOC (stereo not shown) [Example 56] | 13.4 | 80 | 12 | 17 | – | – | – |
| CCOCCOC(C)C#Cc1nc2ccccc2nc1C#CC(C)OCCOCC (stereo not shown) [Example 113] | – | – | – | – | – | > 1000 | – |
| CCOC(C)C#Cc1nc2ccc(C(C)=O)cc2nc1C#CC(C)OCC (stereo not shown) [Example 33, 6-acetyl-2,3-bis(3-ethoxy-1-butynyl)quinoxaline] | 9.88 | 23 | – | – | – | – | – |

Source: US5583227A, “Antiulcer compounds having a substituted alkynyl or quinoxaline nucleus and methods of making thereof” (Mochida Pharmaceutical Co. Ltd., priority 1994, dated 1996)
